Measured values: the supplement of paper PMC12463676, “Small-molecule dissolution of stress granules by redox modulation benefits ALS models” (Nature Chemical Biology, 2025)

Legend:
[1] = compound: NC(=O)CCCCC1CCSS1 [lipoamide]; assay: thermal stability z-score vs DMSO; higher = more thermally stabilized by treatment; settings: HeLa, lipoamide concentration 100 µM
Description: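 Cellular thermal proteome profiling in HeLa cells. Cells were treated with 100 µM lipoamide for 1 h, with or without 1 mM arsenate for a further 1 h, then heated to ten temperatures (37-66.3 °C), and soluble protein was quantified by TMT mass spectrometry relative to 0.1% DMSO controls. The thermal stability score (sum of log2 fold changes minus the abundance score) was transformed to a z-score; mean of n = 3 experiments.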

[2] = compound: O=[As]([O-])(O)O.[K+] [potassium arsenate]; assay: as above; settings: HeLa; arsenate concentration 1 mM
Description: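 Cellular thermal proteome profiling in HeLa cells treated with 1 mM arsenate for 1 h (DMSO pretreatment), heated to ten temperatures (37-66.3 °C). Soluble protein was quantified by TMT mass spectrometry relative to DMSO controls; the thermal stability score was transformed to a z-score; mean of n = 3 experiments.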

[3] = arsenate co-treatment: 1 mM arsenate 1 h
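Note: each temperature applied for 3 min, abundance score taken as mean log2 fold change at the two lowest temperatures, z-score obtained by mean subtraction and division by SD.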

Target	thermal stability z-score [1, 3]	thermal stability z-score ([1]; arsenate co-treatment: none)	thermal stability z-score [2]
MRPL20 (UniProt Q9BYC9)	0.411	0.239	-0.00694
MRPL21 (UniProt Q7Z2W9)	-0.754	-0.591	0.0405
MRPL22 (UniProt Q9NWU5)	0.32	0.464	0.467
MRPL23 (UniProt Q16540)	0.205	0.755	0.525
MRPL24 (UniProt Q96A35)	-0.411	-0.311	-0.261
MRPL27 (UniProt Q9P0M9)	-0.0242	0.00566	-0.0764
MRPL28 (UniProt Q13084)	-0.527	-0.172	-0.154
MRPL30 (UniProt Q8TCC3)	-0.325	0.266	0.112
MRPL32 (UniProt Q9BYC8)	-0.0526	0.482	-0.401
MRPL33 (UniProt O75394)	-0.539	-0.723	-0.812
MRPL35 (UniProt Q9NZE8)	-0.257	-0.048	0.129
MRPL37 (UniProt Q9BZE1)	-0.398	-0.403	-0.0807
MRPL38 (UniProt Q96DV4)	-0.319	-0.0312	0.134
MRPL39 (UniProt Q9NYK5)	-0.499	-0.225	0.057
MRPL40 (UniProt Q9NQ50)	0.157	0.0972	-0.0198
MRPL41 (UniProt Q8IXM3)	-0.202	0.303	0.448
MRPL42 (UniProt Q9Y6G3)	-1.07	-0.921	-1.61
MRPL43 (UniProt Q8N983)	-0.191	0.245	0.166
MRPL44 (UniProt Q9H9J2)	-0.467	-0.447	-0.354
MRPL45 (UniProt Q9BRJ2)	-0.181	0.0671	0.214
MRPL46 (UniProt Q9H2W6)	-0.218	0.1	-0.0514
MRPL47 (UniProt Q9HD33)	-0.428	-0.0176	0.268
MRPL48 (UniProt Q96GC5)	-0.0867	0.198	0.101
MRPL49 (UniProt Q13405)	-0.298	0.49	-0.254
MRPL50 (UniProt Q8N5N7)	1.2	0.662	1.42
MRPL51 (UniProt Q4U2R6)	-0.114	0.334	-0.0101
MRPL53 (UniProt Q96EL3)	0.75	-0.432	0.0397
MRPL54 (UniProt Q6P161)	-0.648	0.074	0.025
MRPL55 (UniProt Q7Z7F7)	0.0563	0.0521	-0.38
MRPL57 (UniProt Q9BQC6)	0.281	0.104	0.671
